Experimental data: the supplement of paper PMC11061612

Experiments:
Experiment in all cases: Bliss excess, mean over the matrix (fraction); higher = more synergy
GAK (Melanoma) = test system: GAK (Melanoma)
Procedure, shortened: (§1)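 Bliss excess equals the observed combination effect minus the expected value EA + EB − EA·EB, where EA and EB are the effects of each agent alone. Combination Emax is the second-highest inhibition within the matrix. Inhibition was scaled from CellTiter-Glo 2.0 luminescence, with 0 set by vehicle wells and 1 by blank wells, after 72 hours of two-drug dosing of cells plated in 1536-well plates.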

[1] = test system: SCC-4 (Oral Cavity Carcinoma)
Procedure, shortened: as §1

WM35 (Melanoma) = test system: WM35 (Melanoma)
Procedure, shortened: as §1

AM-38 (Glioblastoma) = test system: AM-38 (Glioblastoma)
Procedure, shortened: as §1

[2] = test system: Raji (Burkitt's Lymphoma)
Procedure, shortened: as §1

[3] = test system: BHT-101 (Thyroid Gland Carcinoma)
Procedure, shortened: as §1

[4] = test system: NAMALWA (Burkitt's Lymphoma)
Procedure, shortened: as §1

[5] = test system: NCI-H1963 (Small Cell Lung Carcinoma)
Procedure, shortened: as §1

[6] = test system: CL-11 (Colorectal Carcinoma)
Procedure, shortened: as §1

[7] = test system: OAW-28 (Ovarian Carcinoma)
Procedure, shortened: as §1

[8] = test system: NMC-G1 (Low Grade Glioma)
Procedure, shortened: as §1

[9] = test system: NCI-H596 (Other Solid Carcinomas)
Procedure, shortened: as §1

[10] = test system: SNU-C2B (Colorectal Carcinoma)
Procedure, shortened: as §1

[11] = test system: KP-4 (Pancreatic Carcinoma)
Procedure, shortened: as §1

[12] = test system: IA-LM (Non-Small Cell Lung Carcinoma)
Procedure, shortened: as §1

SK-N-SH (Neuroblastoma) = test system: SK-N-SH (Neuroblastoma)
Procedure, shortened: as §1

[13] = test system: SK-CO-1 (Colorectal Carcinoma)
Procedure, shortened: as §1

NB1 (Neuroblastoma) = test system: NB1 (Neuroblastoma)
Procedure, shortened: as §1

[14] = test system: P30-OHK (B-Lymphoblastic Leukemia)
Procedure, shortened: as §1

[15] = test system: SKG-IIIa (Cervical Carcinoma)
Procedure, shortened: as §1

SMILES | Bliss excess (GAK (Melanoma)) | Bliss excess [1] | Bliss excess (WM35 (Melanoma)) | Bliss excess (AM-38 (Glioblastoma)) | Bliss excess [2] | Bliss excess [3] | Bliss excess [4] | Bliss excess [5] | Bliss excess [6] | Bliss excess [7] | Bliss excess [8] | Bliss excess [9] | Bliss excess [10] | Bliss excess [11] | Bliss excess [12] | Bliss excess (SK-N-SH (Neuroblastoma)) | Bliss excess [13] | Bliss excess (NB1 (Neuroblastoma)) | Bliss excess [14] | Bliss excess [15]
COc1cccc(OCCCN)c1-c1cc(Nc2cnc(C#N)cn2)n[nH]1 [Prexasertib] + C[C@@H]1COCCN1C2=NC(=NC(=C2)C3(CC3)[S@](=N)(=O)C)C4=C5C=CNC5=NC=C4 [AZD6738] (first compound max 1 µM, 7x7, partner max 10 µM) | -0.0092 | -0.0323 | -0.026 | -0.0074 | -0.0472 | 0.0322 | -0.0052 | -0.0231 | -0.058 | 0.0102 | 0.0155 | 0.0159 | -0.0274 | 0.0072 | 0.0439 | -0.0425 | -0.0469 | 0.0001 | -0.0333 | 0.0363
CC(=O)Nc1cccc(-n2c(=O)n(C3CC3)c(=O)c3c(Nc4ccc(I)cc4F)n(C)c(=O)c(C)c32)c1 [Trametinib] + Cc1nc(-c2cn3c(n2)-c2ccc(-c4cnn(C(C)(C)C(N)=O)c4)cc2OCC3)n(C(C)C)n1 [Taselisib] (first compound max 1 µM, 7x7, partner max 10 µM) | 0.0805 | 0.147 | 0.124 | 0.117 | 0.0075 | 0.115 | 0.0825 | 0.0452 | 0.139 | 0.158 | 0.0478 | 0.0725 | 0.114 | 0.0745 | 0.0972 | 0.077 | 0.0523 | 0.156 | 0.151 | 0.112
Cc1c2c(nn1C)CSCc1cc(n(C)n1)CSc1cc(c3ccccc3c1)OCCCc1c(C(=O)O)n(C)c3c-2c(Cl)ccc13 [AZD5991] + CCN(CCO)CCCOc1ccc2c(Nc3cc(CC(=O)Nc4cccc(F)c4)[nH]n3)ncnc2c1 [AZD2811] (first compound max 1 µM, 7x7, partner max 1 µM) | – | 0.0408 | 0.0333 | 0.0138 | 0.0766 | -0.0507 | 0.089 | -0.0088 | -0.021 | 0.095 | 0.0152 | -0.102 | 0.0057 | 0.0247 | 0.0059 | -0.068 | -0.0337 | 0.0095 | -0.0342 | 0.0203
Cc1cc2ncnn2cc1Nc1ncc2c(n1)n(C1CCOCC1)c(=O)n2C [AZD7648] + C[C@@H]1COCCN1C2=NC(=NC(=C2)C3(CC3)[S@](=N)(=O)C)C4=C5C=CNC5=NC=C4 [AZD6738] (first compound max 10 µM, 7x7, partner max 10 µM) | 0.0104 | -0.025 | 0.0113 | -0.0015 | 0.0011 | 0.0197 | -0.0089 | 0.0138 | -0.028 | 0.033 | 0.0004 | -0.0318 | -0.0036 | 0.0727 | 0.0867 | 0.0026 | 0.0003 | 0.0428 | 0.0253 | 0.0412
CN(CCO)CC[C@H](CSc1ccccc1)Nc1ccc(S(=O)(=O)NC(=O)c2ccc(N3CCC([C@@H](O)c4ccccc4-c4ccc(Cl)cc4)CC3)cc2)cc1S(=O)(=O)C(F)(F)F [AZD4320] + C[C@@H](Nc1cc(F)cc(F)c1)c1cc(C(=O)N(C)C)cc2c(=O)cc(N3CCOCC3)oc12 [AZD8186] (first compound max 1 µM, 7x7, partner max 3 µM) | -0.0727 | -0.0437 | 0.047 | -0.0033 | 0.0133 | -0.0192 | 0.0041 | 0.0841 | -0.0011 | 0.0055 | 0.0254 | -0.0892 | 0.0342 | 0.0087 | 0.0085 | -0.071 | -0.051 | -0.0033 | 0.0647 | -0.0066
Cc1c2c(nn1C)CSCc1cc(n(C)n1)CSc1cc(c3ccccc3c1)OCCCc1c(C(=O)O)n(C)c3c-2c(Cl)ccc13 [AZD5991] + C[C@@H](Nc1cc(F)cc(F)c1)c1cc(C(=O)N(C)C)cc2c(=O)cc(N3CCOCC3)oc12 [AZD8186] (first compound max 1 µM, 7x7, partner max 3 µM) | 0.0257 | 0.0116 | 0.0064 | -0.0352 | 0.0164 | 0.0094 | 0.0021 | 0.0155 | -0.0377 | 0.0538 | -0.059 | – | -0.0337 | -0.0235 | -0.0274 | -0.0094 | -0.0398 | -0.0275 | 0.0058 | -0.0411
NC1(C(=O)N[C@@H](CCO)c2ccc(Cl)cc2)CCN(c2ncnc3[nH]ccc23)CC1 [Capivasertib] + CC(=O)c1c(C)c2cnc(Nc3ccc(N4CCNCC4)cn3)nc2n(C2CCCC2)c1=O [Palbociclib] (first compound max 10 µM, 7x7, partner max 10 µM) | 0.0095 | -0.007 | 0.01 | 0.0392 | 0.0521 | -0.0022 | 0.0053 | -0.0584 | -0.0222 | -0.0162 | – | -0.0856 | -0.16 | 0.029 | -0.0789 | 0.0041 | -0.0319 | -0.0201 | 0.0689 | -0.0489
